Target: PI3K delta (Homo sapiens (Human), UniProt O00329)
Test: Luciferase-coupled chemiluminescence kinase assay (KinaseGlo, ATP consumption)
Format: biochemical
Summary of the method: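 Kinase, compound and ATP (at or below KM) reacted 2 h at ambient temperature; remaining ATP detected by KinaseGlo luciferase chemiluminescence as percent ATP consumed. 10-point dose-response, curves fitted to give IC50.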

Chain of PI3K delta (O00329 whole entry): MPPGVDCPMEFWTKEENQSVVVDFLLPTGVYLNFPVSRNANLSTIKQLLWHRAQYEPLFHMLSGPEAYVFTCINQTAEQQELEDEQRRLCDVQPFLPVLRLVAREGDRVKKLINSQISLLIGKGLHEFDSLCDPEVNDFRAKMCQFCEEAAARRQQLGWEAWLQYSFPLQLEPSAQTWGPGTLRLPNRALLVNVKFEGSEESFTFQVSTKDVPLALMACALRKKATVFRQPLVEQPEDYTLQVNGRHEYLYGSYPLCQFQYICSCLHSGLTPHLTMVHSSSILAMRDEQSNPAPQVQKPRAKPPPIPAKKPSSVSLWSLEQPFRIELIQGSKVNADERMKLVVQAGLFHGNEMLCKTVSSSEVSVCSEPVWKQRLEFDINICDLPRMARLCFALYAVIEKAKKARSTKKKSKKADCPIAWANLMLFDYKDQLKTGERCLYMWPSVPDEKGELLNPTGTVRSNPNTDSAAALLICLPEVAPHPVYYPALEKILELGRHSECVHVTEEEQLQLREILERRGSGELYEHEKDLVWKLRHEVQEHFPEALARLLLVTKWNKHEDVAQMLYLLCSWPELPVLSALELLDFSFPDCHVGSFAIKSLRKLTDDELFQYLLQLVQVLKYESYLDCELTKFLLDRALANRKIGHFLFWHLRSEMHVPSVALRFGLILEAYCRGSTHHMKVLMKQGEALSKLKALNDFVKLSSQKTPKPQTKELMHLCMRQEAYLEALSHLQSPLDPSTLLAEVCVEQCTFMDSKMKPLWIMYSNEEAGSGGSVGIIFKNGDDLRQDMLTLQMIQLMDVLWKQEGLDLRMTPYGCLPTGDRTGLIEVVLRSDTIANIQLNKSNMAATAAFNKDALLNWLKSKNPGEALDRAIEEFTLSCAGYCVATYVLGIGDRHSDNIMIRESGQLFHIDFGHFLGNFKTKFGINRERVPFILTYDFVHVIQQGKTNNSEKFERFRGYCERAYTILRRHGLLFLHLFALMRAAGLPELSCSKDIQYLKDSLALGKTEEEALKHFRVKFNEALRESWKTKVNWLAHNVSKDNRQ
Chain of PI3K delta (P27986 whole entry partner): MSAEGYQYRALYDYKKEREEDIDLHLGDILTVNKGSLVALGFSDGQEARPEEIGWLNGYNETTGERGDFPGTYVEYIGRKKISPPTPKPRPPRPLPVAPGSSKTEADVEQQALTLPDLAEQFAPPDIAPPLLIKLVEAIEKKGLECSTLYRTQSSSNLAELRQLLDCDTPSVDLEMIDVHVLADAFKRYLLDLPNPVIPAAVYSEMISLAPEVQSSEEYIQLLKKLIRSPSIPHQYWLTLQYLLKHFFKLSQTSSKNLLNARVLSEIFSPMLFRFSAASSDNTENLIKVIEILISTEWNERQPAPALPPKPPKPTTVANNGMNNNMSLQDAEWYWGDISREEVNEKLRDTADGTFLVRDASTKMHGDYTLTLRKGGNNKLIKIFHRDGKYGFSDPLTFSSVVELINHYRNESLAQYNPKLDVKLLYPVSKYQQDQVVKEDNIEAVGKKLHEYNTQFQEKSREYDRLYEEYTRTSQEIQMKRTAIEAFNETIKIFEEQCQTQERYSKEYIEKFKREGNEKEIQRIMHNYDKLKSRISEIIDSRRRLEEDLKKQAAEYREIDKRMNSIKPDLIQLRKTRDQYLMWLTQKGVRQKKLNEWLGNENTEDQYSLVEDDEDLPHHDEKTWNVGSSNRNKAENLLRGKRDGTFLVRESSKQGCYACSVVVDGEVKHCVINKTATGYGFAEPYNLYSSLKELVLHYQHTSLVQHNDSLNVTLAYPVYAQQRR

Structure (SMILES)	IC50
Cc1cccc2cc(CNC(=O)c3nccnc3N)c(N(C)CCN(C)C(=O)CN)nc12 [Compound 115, 3-amino-N-({2-[{2-[glycyl(methyl)amino]ethyl}(methyl)amino]-8-methylquinolin-3-yl}methyl)pyrazine-2-carboxamide]	50 to 250 nM
CNCC(=O)N(C)CCN(C)c1nc2c(C)cccc2cc1CNC(=O)c1nccnc1N [Compound 116, 3-amino-N-{[8-methyl-2-(methyl{2-[methyl(N-methylglycyl)amino]ethyl}amino)quinolin-3-yl]methyl}pyrazine-2-carboxamide]	50 to 250 nM
Cc1ccccc1-c1cc2ccccc2nc1C(C)n1nc(I)c2c(N)ncnc21 (stereo not shown) [Compound 117, 3-iodo-1-{1-[3-(2-methylphenyl)quinolin-2-yl]ethyl}-1H-pyrazolo[3,4-d]pyrimidin-4-amine]	< 50 nM
Cc1ccccc1-c1cc2c(C)cccc2nc1CNC(=O)c1nccnc1N [Compound 118, 3-amino-N-{[5-methyl-3-(2-methylphenyl)quinolin-2-yl]methyl}pyrazine-2-carboxamide]	250 to 500 nM
Cc1ccccc1-c1cc2c(C)cccc2nc1Cn1nc(I)c2c(N)ncnc21 [Compound 119, 3-iodo-1-{[5-methyl-3-(2-methylphenyl)quinolin-2-yl]methyl}-1H-pyrazolo[3,4-d]pyrimidin-4-amine]	< 50 nM
Cc1ccccc1-c1cc2ccccc2cc1Cn1cnc2c(N)ncnc21 [Compound 120, 9-{[3-(2-methylphenyl)naphthalen-2-yl]methyl}-9H-purin-6-amine]	500 to 1500 nM
Cc1cccc2cc(CNC(=O)c3nccnc3N)c(N(C)CCO)nc12 [Compound 121, 3-amino-N-({2-[(2-hydroxyethyl)(methyl)amino]-8-methylquinolin-3-yl}methyl)pyrazine-2-carboxamide]	50 to 250 nM
CNCCOc1nc2c(C)cccc2cc1CNC(=O)c1nccnc1N [Compound 122, 3-amino-N-[(8-methyl-2-{[2-(methylamino)ethyl]oxy}quinolin-3-yl)methyl]pyrazine-2-carboxamide]	500 to 1500 nM
CC(=O)N1CCN(c2nc3c(C)cccc3cc2CNC(=O)c2nccnc2N)CC1 [Compound 124, N-{[2-(4-acetylpiperazin-1-yl)-8-methylquinolin-3-yl]methyl}-3-aminopyrazine-2-carboxamide]	250 to 500 nM
Cc1cccc2cc(CNC(=O)c3nccnc3N)c(NCCO)nc12 [Compound 125, 3-amino-N-({2-[(2-hydroxyethyl)amino]-8-methylquinoin-3-yl}methyl)pyrazine-2-carboxamide]	500 to 1500 nM
Cc1cccc2cc(CNC(=O)c3nccnc3N)c(N3CCC(N(C)C)CC3)nc12 [Compound 127, 3-amino-N-({2-[4-(dimethylamino)piperidin-1-yl]-8-methylquinolin-3-yl}methyl)pyrazine-2-carboxamide]	500 to 1500 nM
Cc1cccc2cc(CNC(=O)c3nccnc3N)c(N(C)CCN(C)C)nc12 [Compound 128, 3-amino-N-[(2-{[2-(dimethylamino)ethyl](methyl)amino}-8-methylquinolin-3-yl)methyl]pyrazine-2-carboxamide]	< 50 nM
Cc1cccc2cc(CNC(=O)c3nccnc3N)c(NCCN(C)C)nc12 [Compound 129, 3-amino-N-[(2-{[2-(dimethylamino)ethyl]amino}-8-methylquinolin-3-yl)methyl]pyrazine-2-carboxamide]	500 to 1500 nM
CNCCN(C)c1nc2c(C)cccc2cc1CNC(=O)c1nccnc1N [Compound 130, 3-amino-N-[(8-methyl-2-{methyl[2-(methylamino)ethyl]amino}quinolin-3-yl)methyl]pyrazine-2-carboxamide]	250 to 500 nM
Cc1cccc2cc(CNC(=O)c3nccnc3N)c(N3CCNCC3)nc12 [Compound 131, 3-amino-N-[(8-methyl-2-piperazin-1-ylquinolin-3-yl)methyl]pyrazine-2-carboxamide]	500 to 1500 nM
Cc1ccccc1-c1cc2ccccc2nc1CNc1cncnc1N [Compound 132, N-5-{[3-(2-methylphenyl)quinolin-2-yl]methyl}pyrimidin-4,5-diamine]	500 to 1500 nM
CNCCCN(C)c1nc2c(C)cccc2cc1CNC(=O)c1nccnc1N [Compound 133, 3-amino-N-[(8-methyl-2-{methyl[3-(methylamino)propyl]amino}quinolin-3-yl)methyl]pyrazine-2-carboxamide]	50 to 250 nM
Cc1ccccc1-c1nc2c(C)cccc2cc1Cn1nc(I)c2c(N)ncnc21 [Compound 134, 3-iodo-1-{[8-methyl-2-(2-methylphenyl)quinolin-3-yl]methyl}-1H-pyrazolo[3,4-d]pyrimidin-4-amine]	< 50 nM
Cc1cccc2cc(CNC(=O)c3nccnc3N)c(N(C)CCCN(C)C(=O)CN(C)C)nc12 [Compound 136, 3-amino-N-({2-[{3-[(N,N-dimethylglycyl)(methyl)amino]propyl}(methyl)amino]-8-methylquinolin-3-yl}methyl)pyrazine-2-carboxamide]	< 50 nM
Cc1cccc2cc(CNC(=O)c3nccnc3N)c(N3CCCN(C(=O)CN(C)C)CC3)nc12 [Compound 137, 3-amino-N-({2-[4-(N,N-dimethylglycyl)-1,4-diazepan-1-yl]-8-methylquinolin-3-yl}methyl}pyrazine-2-carboxamide]	250 to 500 nM

Structure (SMILES)	IC50
Cc1cccc2cc(CNC(=O)c3nccnc3N)c(NCCCN(C)C)nc12 [Compound 138, 3-amino-N-[(2-{[3-(dimethylamino)propyl]amino}-8-methylquinolin-3-yl)methyl]pyrazine-2-carboxamide]	500 to 1500 nM
Cc1cccc2cc(CNC(=O)c3nccnc3N)c(N3CCCNCC3)nc12 [Compound 139, 3-amino-N-{[2-(1,4-diazepan-1-yl)-8-methylquinolin-3-yl]methyl}pyrazine-2-carboxamide]	250 to 500 nM
Cc1cccc2cc(CNC(=O)c3nccnc3N)c(N3CCCN(C)CC3)nc12 [Compound 140, 3-amino-N-{[8-methyl-2-(4-methyl-1,4-diazepan-1-yl)quinolin-3-yl]methyl}pyrazine-2-carboxamide]	250 to 500 nM
Cc1ccccc1-c1cc2ccccc2nc1CNc1ncnc2[nH]nc(Br)c12 [Compound 141, 3-bromo-N-{[3-(2-methylphenyl)quinolin-2-yl]methyl}-1H-pyrazolo[3,4-d]primidin-4-amine]	500 to 1500 nM
Cc1ccccc1-c1cc2ccccc2nc1CNC(=O)c1nccnc1N [Compound 142, 3-amino-N-{[3-(2-methylphenyl)quinolin-2-yl]methyl}pyrazine-2-carboxamide]	500 to 1500 nM
CC(=O)N1CCN(c2nc3c(C)cccc3cc2CNc2ncnc3[nH]cnc23)CC1 [Compound 143, N-{[2-(4-acetylpiperazin-1-yl)-8-methylquinolin-3-yl]methyl}-9H-purin-6-amine]	< 50 nM
CCN1CCN(c2nc3c(C)cccc3cc2CNc2ncnc3[nH]cnc23)CC1 [Compound 144, N-{[2-(4-ethylpiperazin-1-yl)-8-methylquinolin-3-yl]methyl}-9H-purin-6-amine]	< 50 nM
Cc1ccccc1-c1cc2ccccc2nc1Cn1nc(I)c2c(N)ncnc21 [Compound 145, 3-iodo-1-{[3-(2-methylphenyl)quinolin-2-yl]methyl}-1H-pyrazolo[3,4-d]pyrimidin-4-amine]	< 50 nM
Cc1cccc2cc(CNc3ncnc4[nH]cnc34)c(N3CCCN(C)CC3)nc12 [Compound 146, N-{[8-methyl-2-(4-methyl-1,4-diazepan-1-yl)quinolin-3-yl]methyl}-9H-purin-6-amine]	< 50 nM
Cc1cccc2cc(CNC(=O)c3nccnc3N)c(N3CCCCC3)nc12 [Compound 147, 3-amino-N-[(8-methyl-2-piperidin-1-ylquinolin-3-yl)methyl]pyrazine-2-carboxamide]	500 to 1500 nM
Cc1cccc2cc(CNC(=O)c3nccnc3N)c(-c3ccccc3Cl)nc12 [Compound 148, 3-amino-N-{[2-(2-chlorophenyl)-8-methylquinolin-3-yl]methyl}pyrazine-2-carboxamide]	50 to 250 nM
CNCCN(C)c1nc2c(C)cccc2cc1Cn1cnc2c(N)ncnc21 [Compound 149, N-{3-[(6-amino-9H-purin-9-yl)methyl]-8-methylquinolin-2-yl}-N,N′-dimethylethane-1,2-diamine]	< 50 nM
Cc1cccc2cc(Cn3cnc4c(N)ncnc43)c(N3CC4CC3CN4C)nc12 (stereo not shown) [Compound 150, 9-{[8-methyl-2-(5-methyl-2,5-diazabicyclo[2.2.1]hept-2-yl)quinolin-3-yl]methyl}-9H-purin-6-amine]	500 to 1500 nM
Cc1ccccc1-n1c(CNC(=O)c2nccnc2N2CCOCC2)nc2cccc(C)c2c1=O [Compound 151]	500 to 1500 nM
Cc1cccc2cc(C(C)Nc3ncnc4[nH]cnc34)c(-c3ccccc3Cl)nc12 (stereo not shown) [Compound 152, N-{1-[2-(2-chlorophenyl)-8-methylquinolin-3-yl]ethyl}-9H-purin-6-amine]	< 50 nM
Cc1cccc2cc(Cn3cnc4c(N)ncnc43)c(NS(C)(=O)=O)nc12 [Compound 153, N-{3-[(6-amino-9H-purin-9-yl)methyl]-8-methylquinolin-2-yl}methanesulfonamide]	500 to 1500 nM
Cc1cccc2cc(CNc3ncnc4[nH]cnc34)c(-c3ccccc3Cl)nc12 [Compound 154, N-{[2-(2-chlorophenyl)-8-methylquinolin-3-yl]methyl}-9H-purin-6-amine]	< 50 nM
Cc1ccccc1-c1cc2ccccc2nc1CNc1ncnc2[nH]cnc12 [Compound 155, N-{[3-(2-methylphenyl)quinolin-2-yl]methyl}-9H-purin-6-amine]	50 to 250 nM
Cc1cccc2cc(Cn3cnc4c(N)ncnc43)c(NS(=O)(=O)c3ccccc3)nc12 [Compound 156, N-{3-[(6-amino-9H-purin-9-yl)methyl]-8-methylquinolin-2-yl}benzenesulfonamide]	500 to 1500 nM
Cc1ccccc1-n1c(CCN)nc2cccc(C)c2c1=O [Compound 157, 2-(2-aminoethyl)-5-methyl-3-(2-methylphenyl)quinazolin-4(3H)-one]	500 to 1500 nM

Source: US9670212B2, “Inhibitors of PI3K-delta and methods of their use and manufacture” (Exelixis, Inc., priority 2010, dated 2017)
